In patent EP0166353B1, “Benzofused lactams useful as antihypertensive agents and as cholecystokinin antagonists” (Merck & Co., Inc., priority 1984, dated 1986):

Target: CCK receptor
Test: 125I-CCK-33 receptor binding assay
Conditions: tissue not stated (methods given for rat pancreas and guinea pig brain cortex membranes); read-out: IC₅₀, inhibition of specific ¹²⁵I-CCK-33 binding
Description: CCK-33 was radiolabeled with ¹²⁵I-Bolton Hunter reagent (2000 Ci/mmole) as described by Sankara et al. (J. Biol. Chem. 254: 9349-9351, 1979). Receptor binding was performed according to Innis and Snyder (Proc. Natl. Acad. Sci. 77: 6917-6921, 1980) with the minor modification of adding the additional protease inhibitors, phenylmethane sulfonyl fluoride and o-phenanthroline. The latter two compounds have no effect on the ¹²⁵I-CCK receptor binding assay.
Male Sprague-Dawley rats (200-350g) were sacrificed by decapitation. The whole pancreas was dissected free of fat tissue and was homogenized in 20 volumes of ice-cold 50 mM, Tris HCl (pH 7.7 at 25°C) with a Brinkmann Polytron PT 10. The homogenates were centrifuged at 48,000 g for 10 min. […] The supernatant was aspirated and discarded, pellets were counted with a Beckman gamma 5000. […]
Male Hartley guinea pigs (300-500g) were sacrificed by decapitation and the brains were removed and placed in ice-cold 50 mM, Tris HCl plus 7.58 g/L Trizma-7.4 (pH 7.4 at 25°C) Cerebral cortex was dissected and used as a receptor source. […] The supernatant was aspirated and discarded, pellets were counted with a Beckman gamma 5000.

SMILES: CCOC(=O)C(CCc1ccccc1)NC1CCc2ccccc2N(CC(=O)COC(C)=O)C1=O (stereo not shown) [1-(3-Acetoxy-2-oxopropyl)-3-(1-carboethoxy-3-phenyl-1-propyl)amino homodihydrocarbostyril]
- IC50: 25 µM
